Assay results as given in ChEMBL document CHEMBL1201862, “PubChem BioAssay data set” (2004).
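Following 48 hours of exposure in 96-well plates, responses at five concentrations were used to interpolate endpoints linearly. GI50: concentration for 50% inhibition of growth.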 Calls of active or inactive are those of the source. Cut-off read from the data, not from the text of the source: active = GI50 up to about 1.1 µM and inactive = higher.

Tests used:
Experiment in all cases: inhibition of tumour cell growth, NCI panel, 48 h
NCI-H226 = system: NCI-H226
Hs-578T = system: Hs-578T
NCI-H460 = system: NCI-H460
UACC-257 = system: UACC-257
UO-31 = system: UO-31
UACC-62 = system: UACC-62
OVCAR-4 = system: OVCAR-4
MOLT-4 = system: MOLT-4
MDA-N = system: MDA-N
EKVX = system: EKVX
SK-MEL-2 = system: SK-MEL-2
Malme-3M = system: Malme-3M
RPMI-8226 = system: RPMI-8226
SF-539 = system: SF-539
OVCAR-5 = system: OVCAR-5
HCT-15 = system: HCT-15
SF-268 = system: SF-268
COLO 205 = system: COLO 205
NCI-H522 = system: NCI-H522
HCC 2998 = system: HCC 2998

SMILES	GI50 (NCI-H226)	GI50 (Hs-578T)	GI50 (NCI-H460)	GI50 (UACC-257)	GI50 (UO-31)	GI50 (UACC-62)	GI50 (OVCAR-4)	GI50 (MOLT-4)	GI50 (MDA-N)	GI50 (EKVX)	GI50 (SK-MEL-2)	GI50 (Malme-3M)	GI50 (RPMI-8226)	GI50 (SF-539)	GI50 (OVCAR-5)	GI50 (HCT-15) [µM]	GI50 (SF-268)	GI50 (COLO 205)	GI50 (NCI-H522)	GI50 (HCC 2998)
C[C@H]1/C(=C/C(=O)OCCN(C)C)CC[C@H]2[C@H]1C(=O)C[C@H]1C(C)(C)[C@@H](O)CC[C@]21C	22.5 µM (inactive)	> 100 µM (inactive)	> 100 µM (inactive)	> 100 µM (inactive)	> 100 µM (inactive)	> 100 µM (inactive)	> 100 µM (inactive)	> 100 µM (inactive)	> 100 µM (inactive)	> 100 µM (inactive)	> 100 µM (inactive)	> 100 µM (inactive)	> 100 µM (inactive)	> 100 µM (inactive)	> 100 µM (inactive)	> 100	> 100 µM (inactive)	> 100 µM (inactive)	> 100 µM (inactive)	> 100 µM (inactive)
CCN(CC)CCN1c2ccccc2Sc2ccc3ccccc3c21	7.45 µM (inactive)	13.5 µM (inactive)	2.07 µM (inactive)	7.69 µM (inactive)	5.81 µM (inactive)	8.57 µM (inactive)	5.36 µM (inactive)	3.74 µM (inactive)	12.3 µM (inactive)	6.37 µM (inactive)	14.3 µM (inactive)	15.4 µM (inactive)	3.33 µM (inactive)	13.6 µM (inactive)	9.1 µM (inactive)	6.9	14.4 µM (inactive)	4.75 µM (inactive)	11.8 µM (inactive)	2.23 µM (inactive)
Cc1n[nH]c(=O)n1-n1cccc1	> 100 µM (inactive)	> 100 µM (inactive)	> 100 µM (inactive)	> 100 µM (inactive)	> 100 µM (inactive)	> 100 µM (inactive)	> 100 µM (inactive)	> 100 µM (inactive)	> 100 µM (inactive)	> 100 µM (inactive)	> 100 µM (inactive)	> 100 µM (inactive)	> 100 µM (inactive)	> 100 µM (inactive)	> 100 µM (inactive)	> 100	> 100 µM (inactive)	> 100 µM (inactive)	> 100 µM (inactive)	> 100 µM (inactive)
Clc1ccc(-c2cn3c(nc4ccccc43)c(-c3ccccc3)n2)cc1	47 µM (inactive)	12.3 µM (inactive)	18 µM (inactive)	61.2 µM (inactive)	24.2 µM (inactive)	11.4 µM (inactive)	5.85 µM (inactive)	> 100 µM (inactive)	27.2 µM (inactive)	64.3 µM (inactive)	14.1 µM (inactive)	23.1 µM (inactive)	> 100 µM (inactive)	22.3 µM (inactive)	> 38.9 µM (inactive)	> 100	48 µM (inactive)	40.2 µM (inactive)	13.8 µM (inactive)	44.9 µM (inactive)
O=S(=O)(O)c1cc(O)c(/N=N\C2S(=O)(=O)OCCOS2(=O)=O)c2ccccc12	> 100 µM (inactive)	> 100 µM (inactive)	23.4 µM (inactive)	> 100 µM (inactive)	> 100 µM (inactive)	91 µM (inactive)	> 100 µM (inactive)	30.6 µM (inactive)	> 100 µM (inactive)	> 100 µM (inactive)	> 100 µM (inactive)	> 100 µM (inactive)	> 100 µM (inactive)	54.3 µM (inactive)	> 100 µM (inactive)	> 100	> 100 µM (inactive)	> 100 µM (inactive)	> 100 µM (inactive)	> 100 µM (inactive)
